Test results from patent US20130245110A1, “USE FOR CANNABINOIDS” (priority 2008, published 2013).
Values joined by “and” are separate entries in the source; they are usually repeats but may differ in a detail not shown here. Equal entries are not always repeated.

What was measured:
C57B1/Ks db/db mouse = test: Glycaemic control (blood glucose, oral glucose tolerance, 24 h glucose profile); assay type: in vivo; settings: db/db mice
Excerpt: Inflammation is also a feature of type II diabetic animals and man. […] However, as a result of the C57B1/Ks genetic background rather than the C57B1/6, the mice show loss of pancreatic function from around 6/7 weeks of age and by 10 weeks show frank diabetes.
• Daily: Food and water intake • Twice weekly: Body weight and glucose • Day 1: Weigh mice, dose compounds, provide measured amount of food, provide measured amount of water • Days 2, 5 and 8: Fed blood glucose concentration • Day 9: Oral glucose tolerance • Days 12 and 16: Fed blood glucose concentration • Day 19: 24 hr glycaemic assay • Days 22, 26 and 29: Fed blood glucose concentration • Day 33: 24 hr glycaemic assay • Day 38: Fed blood glucose concentration • Day 39: Body composition by Dexascan in anaesthetised mice • Day 41: Termination. Take blood samples for glucose, free fatty acids, triglycerides, cholesterol, insulin and HbA

C57B1/6 ob/ob mouse [1] = test: Fed plasma HDL-cholesterol; assay type: in vivo; settings: ob/ob mice; for Fed HDL cholesterol day 28: individual values; for percentage HDL cholesterol day 28: HDL as percentage of total cholesterol
Method: The following are a battery of tests used to elicit the effects of drugs on diseases including type I or II diabetes, obesity, dyslipidaemia, related metabolic disorders and cardiovascular disease. • a) Body weight: Bodyweights of all mice were measured twice weekly during the study. • b) Food intake: Food intake was measured by weight difference taking account of food wastage in the bottom of the cage. • c) Measurement of water consumption: Water intake was calculated daily for each animal, during the treatment period, by weight difference of the water bottle. • d) Oral Glucose Tolerance Test (OGTT): Glucose was dissolved in water (3 g/10 ml) and given to the mice orally at a rate of 3 g/kg. […] Blood samples were also taken at −30 minutes for insulin analysis. • e) Blood Glucose analysis: Duplicate 20 μl samples of blood of were taken for each individual sample and placed in a 96-well assay plate. To each well was added 180 μl aliquots of glucose oxidase reagent. Samples were mixed and then left for approximately 30 minutes. Samples were then analysed automatically using a SpectraMax-250 and SoftMax Pro software. • f) Plasma preparation: Blood was collected for the measurement of i) plasma insulin, ii) cholesterol, iii) free fatty acids or iv) triglyceride concentration. • i. Plasma insulin analysis: Plasma insulin was measured using 5 μl of plasma, compared with a mouse insulin standard using a 96-well micro-assay plate • ii. Plasma cholesterol analysis: To each sample was added 200 μl of infinity cholesterol liquid stable reagent. The samples were mixed and incubated for 5 minutes before reading at dual wavelengths of 500 and 660 nm. • iii. Plasma free fatty acids: 5 μl samples of plasma were measured into a 96-well assay plate, to which was added 0.2 ml of reagents NEFA C • iv. Plasma triglycerides analysis: To each well 200 μl aliquots of triglycerides reagent. […] Comparison with a calibrated standard allowed identification of types of tissue by their density. Dedicated software was using to quantify amounts of bone and fat. The mice were lightly anaesthetised, sufficient to keep them quiescent during this non-invasive technique. • h) Energy expenditure measurements: Energy expenditure was measured by open circuit indirect calorimetry with mice in their home cages. For studies of 24 h energy expenditure, mice were dosed with their allocated treatment and then measurements commenced. […] Plasma leptin was measured in fed mice using the Crystal Chem Elisa assay. • j) Plasma adiponectin: Adiponectin exerts some of its weight reduction effects via the brain. This is similar to the action of leptin, but the two hormones perform complementary actions, and can have additive effects. Plasma adiponectin was measured in overnight fasted mice using the 96-well B-Bridge Elisa assay. • k) Plasma HDL-cholesterol: Plasma HDL-cholesterol was measured in fed mice using the kit from Trinity Biotech. • l) 24 h blood glucose profile: This was determined in order to ensure that changes in the diurnal control of blood glucose were detected. Thus blood samples were obtained at three hourly intervals throughout a continuous 24 h period. • m) Plasma haemoglobin AIC: Samples (10 μl) were analysed using the AIC. […] The homogenate was then extracted overnight at 4° C. and centrifuged at 2000 g for 5 min. • o) Pancreatic islet histology: […] sections were cut using a Leica RM2125 rotary microtome, transferred to positively-charged glass slides and dried overnight at 42° C. Morphology was assessed using hematoxylin and eosin staining. • p) Liver glycogen: After centrifugation (3000×g for 15 min), an aliquot of the supernatant (10 μl) is assayed using the glucose oxidase method. […] 1 ml of chloroform is added and tubes vortexed and left at 4° C. for 2 h with vortexing every 30 min. 200 μl of 0.9% sodium chloride is added and after thorough vortexing, the mixture is centrifuged at 300×g for 5 min.

C57B1/6 ob/ob mouse [2] = test: Plasma triglycerides; assay type: in vivo; settings: ob/ob mice; CBD given on its own (3.0 mg/kg)
Method: The following are a battery of tests used to elicit the effects of drugs on diseases including type I or II diabetes, obesity, dyslipidaemia, related metabolic disorders and cardiovascular disease. • a) Body weight: Bodyweights of all mice were measured twice weekly during the study. • b) Food intake: Food intake was measured by weight difference taking account of food wastage in the bottom of the cage. • c) Measurement of water consumption: Water intake was calculated daily for each animal, during the treatment period, by weight difference of the water bottle. • d) Oral Glucose Tolerance Test (OGTT): Glucose was dissolved in water (3 g/10 ml) and given to the mice orally at a rate of 3 g/kg. […] Samples were then analysed automatically using a SpectraMax-250 and SoftMax Pro software. • f) Plasma preparation: Blood was collected for the measurement of i) plasma insulin, ii) cholesterol, iii) free fatty acids or iv) triglyceride concentration. • i. Plasma insulin analysis: Plasma insulin was measured using 5 μl of plasma, compared with a mouse insulin standard using a 96-well micro-assay plate • ii. […] The samples were mixed and incubated for 5 minutes before reading at dual wavelengths of 500 and 660 nm. • iii. Plasma free fatty acids: 5 μl samples of plasma were measured into a 96-well assay plate, to which was added 0.2 ml of reagents NEFA C • iv. […]

NOD mice = settings: 86% in non-treated controls; cited from earlier work
[3] = system: dietary induced obese (DIO) mouse model; test: 24 h energy expenditure by indirect calorimetry, chronic dosing study; assay type: in vivo; settings: DIO mice
Excerpt: The C57B1/6 mouse fed on a high fat diet for around 12 weeks is a standard model used to evaluate agents likely to affect metabolic disease including obesity, type II diabetes and dyslipidaemia. Thus both potential anti-obesity effects and effects on diabetic and dyslipidaemia parameters will be measured.
Once the acute studies were complete the mice were grouped in two groups of five mice for the chronic dosing study. Dosing was daily by oral gavage at 09:00-10:00.

[4] = system: dietary induced obese (DIO) mouse model; test: Percentage body fat by Dexascan; assay type: in vivo; settings: DIO mice; day 28 Dexascan; pure THCV at 30-fold lower dose than rimonabant
[5] = system: dietary induced obese (DIO) mouse model; test: Growth (body weight, nose-anus length); assay type: in vivo; settings: DIO mice; chronic dosing
[6] = 3.0 mg·kg−1 daily oral gavage (combination: both 3.0)
[7] = 0.3 mg·kg−1 daily oral gavage (combination: both 0.3)

| Structure (SMILES) | Glycaemic control versus control (C57B1/Ks db/db mouse) | Fed HDL cholesterol day 28 (C57B1/6 ob/ob mouse [1]; [6]) | Fed HDL cholesterol day 28 (C57B1/6 ob/ob mouse [1]; 3.0 mg·kg−1 daily oral gavage (combination: both 3.0), listed as Pure CBD) | Plasma triglycerides (C57B1/6 ob/ob mouse [2]) | Incidence of diabetes (NOD mice) [%] | Potency on energy expenditure relative to rimonabant, on a dosage basis [3] | Effectiveness on energy expenditure compared with rimonabant ([3]; high dose THCV-BDS, pure THCV 0.3 mg kg−1) | Percentage body fat [4] | Effect on growth [5] | Fed HDL cholesterol day 28 (C57B1/6 ob/ob mouse [1]; [7]) | percentage HDL cholesterol day 28 (C57B1/6 ob/ob mouse [1]; [7]) | percentage HDL cholesterol day 28 (C57B1/6 ob/ob mouse [1]; [6]) |
| --- | --- | --- | --- | --- | --- | --- | --- | --- | --- | --- | --- | --- |
| C=C(C)[C@@H]1CCC(C)=C[C@H]1c1c(O)cc(CCCCC)cc1O [CBD, cannabidiol] | did not show significant differences in glycaemic control | increasing the amount and 3.31 and 3.00 and 3.36 and 3.63 and 2.98 and 3.38 and 3.18 | increasing the plasma HDL-cholesterol concentration | no effect on plasma triglycerides | 30 |  |  |  |  |  |  |  |
| CCCc1cc(O)c2c(c1)OC(C)(C)[C@@H]1CCC(C)=C[C@@H]21 [THCV, tetrahydrocannabivarin] |  | 2.17 and 2.16 and 2.24 and 2.51 and 2.98 and 2.94 and 2.57 and 2.28 |  |  |  | at least 10 fold | more effective than rimonabant | at least as effective as rimonabant | without any effect on growth | 2.16 (3×) and 2.35 and 2.33 and 2.21 and 2.25 and 2.14 | 30.4% and 25.1% and 33.6% and 39.3% and 37.5% and 34.3% and 37.9% and 38.0% | 34.5% and 31.1% and 34.0% and 40.4% and 41.3% and 45.6% and 33.6% and 32.4% |
